Results taken from patent US10137210B2, “Thioflavin derivatives for use in antemortem diagnosis of Alzheimer's disease and in vivo imaging and prevention of amyloid deposition” (UNIVERSITY OF PITTSBURGH—OF THE COMMONWEALTH SYSTEM OF …, priority 2000, dated 2018).
“Also recorded” adds a separate entry of the source. Like-named read-outs stand apart in the source and are kept apart here.

Tests used:
[1] = system: plaques and tangles in post-mortem AD brain; assay: Preliminary tissue staining of post-mortem AD brain with ThT and derivatives; format: binding, human; details: for staining detectable at low concentration of staining solution: staining solutions containing only 10 nM of the BTA compound; for staining of plaques and tangles in AD brain: post-mortem AD brain, fluorescence
Description: Thus, in the development of these compounds, tissue staining has served the dual purpose of assessing specificity of staining in AD brain tissue as well as assessing binding affinity by screening staining solutions over a range of concentrations similar to that employed in the binding assays.

synthetic Aβ(1-40) = synthetic Aβ(1-40) (Homo sapiens (Human), UniProt P05067); assay: Competitive binding with [3H]CG and synthetic Aβ(1-40)
[2] = In vivo brain uptake and retention in mice; design: species or system mouse; details: for Mouse Brain Uptake @ 2 min / Mouse Brain Uptake @ 30 min: 11C-labeled compound; for 2 min (% ID/g): brain uptake at 2 min; for 2 min (% ID/g) / 30 min (% ID/g): Table 1 lower part; for 30 min (% ID/g): brain uptake at 30 min
Description: In Table 1 below are five different ^11C-labeled BTA derivatives where their in vitro binding properties, log P values, and in vivo brain uptake and retention properties in mice have been determined.

Aβ(1-40) fibrils = Aβ(1-40) fibrils (Homo sapiens (Human), UniProt P05067); assay: [N-methyl-11C]BTA-1 binding assay with Aβ(1-40) fibrils
[3] = Partitioning between octanol and phosphate-buffered saline (logP)
[4] = target: amyloid deposits in PS1/APP mouse brain (Homo sapiens (Human), UniProt P05067); assay: Staining of transgenic PS1/APP mouse brain sections with unlabeled BTA-1; format: binding
Description: The PS1/APP mouse model combines two human gene mutations known to cause Alzheimer's disease in a doubly transgenic mouse which deposits Aβ fibrils in amyloid plaques in the brain beginning as early as 3 months of age. […] NFT have not been observed in transgenic mouse models of amyloid deposition.

[5] = target: Aβ amyloid plaques and cerebrovascular amyloid (Homo sapiens (Human), UniProt P05067); assay: In vivo labeling of amyloid deposits in PS1/APP transgenic mice, multiphoton microscopy; design: species or system mouse; details: 10 mg/kg ip, imaged 24 hours later, living PS1/APP mice
Description: Twenty-four hours later, multiphoton fluorescence microscopy was employed to obtain high resolution images in the brains of living mice using a cranial window technique.

[6] = system: amyloid deposits in postmortem AD brain; assay: Staining of postmortem AD brain tissue sections with unlabeled BTA-1; format: binding, human
[7] = In vivo PET brain imaging in baboons; details: normal baboon brain, 5-15 min post injection, 3 mCi i.v.
Method: Brain imaging studies were conducted following the intravenous injection of 3-5 mCi of radiotracer. Typical attenuation- and decay-corrected time-activity curves for a frontal cortex region of interest for each of the three compounds are shown in FIG. 6. It is noted that the absolute brain uptake of these 3 compounds in baboons is very similar to that in mice (i.e., about 0.47 to 0.39%ID/g*kg). […] The rank order of maximum brain uptake and clearance rate of the three compounds were also the same in mice and baboons. […] Typical amounts of unmetabolized injectate in plasma for all three compounds were about: 90% at 2 minutes; 35% at 30 minutes; and 20% at 60 minutes.
The emission files collected 5-15 min post injection were summed to provide the images. Brain regions include: Ctx (cortex); Thl (thalamus); Occ (occipital cortex); and Cer (cerebellum).

[8] = system: Aβ and tau deposits in brain homogenates; assay: [3H]BTA-1 binding to brain homogenates (AD brain and Braak stage II control brain); design: species or system human
Description: This control brain had frequent numbers of NFT in the entorhinal cortex (FIG. 5A), but no neuritic or diffuse plaques in any area of the brain (FIG. 11C). The NFT numbers in the EC of Cntl 04 were similar to the numbers found in many AD cases (FIG. 11B).

[9] = Table 1, upper part, read-out: Ki (nM) to Aβ fibrils
[10] = Table 1, lower part, read-out: Ki
[11] = competition for Aβ sites, FIG. 5 right panel, read-out: Ki

synthetic Aβ(1-40), sequence (P05067 672-711): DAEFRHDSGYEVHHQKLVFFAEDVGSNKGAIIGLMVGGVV
Aβ(1-40) fibrils, sequence (P05067 672-711): as above
amyloid deposits in PS1/APP mouse brain, sequence (P05067 672-713): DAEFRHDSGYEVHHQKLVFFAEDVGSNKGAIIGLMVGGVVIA
Aβ amyloid plaques and cerebrovascular amyloid, sequence (P05067 672-713): as above

## CNc1ccc(-c2nc3ccc(C)cc3s2)cc1 [6-Me-BTA-1]
[1]
  staining detectable at low concentration of staining solution: could still be detected

## Thioflavin S [ThS]
Synthetic Aβ(1-40)
  competition with [3H]CG for binding sites on Aβ(1-40): competed

## COc1ccc2nc(-c3ccc(N(C)[11CH3])cc3)sc2c1
[2]
  Mouse Brain Uptake @ 2 min: 0.32 ± 0.09 % ID/g * kg
  Mouse Brain Uptake @ 30 min: 0.42 ± 0.10 % ID/g * kg
[2]; mouse brain
  Ratio of 2 min/30 min Uptake Values: 0.8
physchem
  logP: 3.3
Aβ(1-40) fibrils; [9]
  Ki: 2.3 nM

## Cc1ccc2c(c1)sc(-c1ccc(N(C)C)cc1)[n+]2C.[Cl-] [ThT, Thioflavin T, reference compound]
Synthetic Aβ(1-40)
  competition with [3H]CG for binding sites on Aβ(1-40): lack of competition; also recorded: did not
[3]; octanol / phosphate-buffered saline
  log of the partition coefficient, logPoct: 0.57
[1]
  staining of plaques and tangles in AD brain: weakly stains plaques

## Cc1ccc2nc(-c3ccc(N(C)[11CH3])cc3)sc2c1
[2]
  Mouse Brain Uptake @ 2 min: 0.15 ± 0.06 % ID/g * kg
  Mouse Brain Uptake @ 30 min: 0.16 ± 0.02 % ID/g * kg
[2]; mouse brain
  Ratio of 2 min/30 min Uptake Values: 0.9
physchem
  logP: 3.9

## COc1ccc2nc(-c3ccc(N)cc3)sc2c1 [6-MeO-BTA-0, 6-Methoxy-2-(4-aminophenyl)benzothiazole]
[2]; mouse brain
  brain clearance: poor brain clearance

## CNc1ccc(-c2nc3ccccc3s2)cc1 [BTA-1, 2-(4-Methylaminophenyl)benzothiazole]
[4]; 8 month old PS1/APP mouse brain tissue
  staining of amyloid plaques: clearly visible
[4]; FIG. 8, right
  staining of cerebrovascular amyloid: brightly stained
[5]
  in vivo labeling of plaques and cerebrovascular amyloid: plaques and cerebrovascular amyloid are clearly distinguishable
[6]; AD brain, FIG. 8, left
  staining of neurofibrillary tangles (NFT): more faintly stained
[6]; postmortem AD brain tissue
  staining of amyloid plaques: clearly visible
[7]
  distribution of radioactivity in brain (PET): uniform distribution of radioactivity throughout the brain
[8]; Braak VI AD brain
  binding in cerebellum and entorhinal cortex: low binding
  binding in frontal gray versus cerebellum and entorhinal cortex: over ten-fold higher levels
[8]; Braak stage II control brain (Cntl 04)
  binding in NFT-rich entorhinal cortex versus cerebellum and frontal gray: no greater than
Aβ(1-40) fibrils; 200 nM Aβ(1-40) fibrils
  specific binding: ~70%

## Nc1ccc(-c2nc3ccccc3s2)cc1[125I]
[2]; Table 1, lower part
  2:30 min ratio: 2.7
[2]
  2 min (% ID/g): 9.08 % ID/g
  30 min (% ID/g): 3.4 % ID/g
physchem
  logP: 3.17
Aβ(1-40) fibrils; [10]
  Ki: 8.32 nM

## Cc1ccc2nc(-c3ccc(N[11CH3])cc3)sc2c1
[3]
  logP: 3.3
[2]
  Mouse Brain Uptake @ 2 min: 0.32 ± 0.07 % ID/g * kg
  Mouse Brain Uptake @ 30 min: 0.17 ± 0.05 % ID/g * kg

## Cc1ccc2nc(-c3ccc(N)cc3)sc2c1 [6-Me-BTA-0, 2-(4′-aminophenyl)-6-methyl-benzothiazole]
[1]
  staining of plaques and tangles in AD brain: stain plaques and tangles
  staining detectable at low concentration of staining solution: could still be detected

## [11CH3]Nc1ccc(-c2nc3ccccc3s2)cc1
[2]
  Mouse Brain Uptake @ 2 min: 0.44 ± 0.14 % ID/g * kg
  Mouse Brain Uptake @ 30 min: 0.057 ± 0.010 % ID/g * kg
physchem
  logP: 2.7

## CN(C)c1ccc(-c2nc3ccccc3s2)cc1 [BTA-2, 2-(4-dimethylaminophenyl)benzothiazole]
Aβ(1-40) fibrils; [11]
  Ki: 3 ± 0.8 nM

## Nc1ccc(-c2nc3ccccc3s2)cc1 [BTA-0, 2-(4-Aminophenyl)benzothiazole]
Aβ(1-40) fibrils; [11]
  Ki: 100 ± 16 nM

## c1ccc(-c2nc3ccccc3s2)cc1 [BTP, 2-phenylbenzothiazole, reference compound]
[1]
  staining of plaques and tangles in AD brain: does not appear to stain plaques

## Cc1ccc2nc(-c3ccc(N(C)C)cc3)sc2c1 [6-Me-BTA-2, 2-(4′-dimethylaminophenyl)-6-methyl-benzothiazole]
[1]
  staining of plaques and tangles in AD brain: stain plaques and tangles

## Nc1ccc(-c2nc3ccc(O)cc3s2)cc1[125I]
[2]
  2 min (% ID/g): 5.64 % ID/g
  30 min (% ID/g): 0.36 % ID/g
physchem
  logP: 1.65
Aβ(1-40) fibrils; [10]
  Ki: 11.1 nM

## COc1ccc2nc(-c3ccc(N[11CH3])cc3)sc2c1
[2]
  Mouse Brain Uptake @ 2 min: 0.43 ± 0.11 % ID/g * kg
  Mouse Brain Uptake @ 30 min: 0.094 ± 0.038 % ID/g * kg
[2]; mouse brain
  Ratio of 2 min/30 min Uptake Values: 4.6
physchem
  logP: 2.7
Aβ(1-40) fibrils; [9]
  Ki: 5.7 nM
